Measurements: US20100248255A1, “NOVEL PEPTIDES” (KYOWA HAKKO KOGYO CO., LTD, priority 2005, published 2010)
No end group written: not given here.

System: antiserum (rabbit, Peptide 7-KLH conjugate as antigen)
Experiment: Binding specificity of antiserum by competitive RIA with [125I]-labeled Peptide 1
Protocol: As controls, reactions that use RIA buffer instead of the antiserum to measure non-specific binding, and reactions […] that use RIA buffer instead of VGF-derived peptide solutions to measure the maximum binding level were carried out. Reactions for non-specific binding were performed in quadruplicates, and the other reactions were performed in duplicates, and for each of the reactants, the immune complex was precipitated as in the above-mentioned antibody titer measurements, and its radioactivity (cpm) was measured. The average radioactivity of non-specific binding reaction is defined as non-specific binding level N, the radioactivity value for each VGF-derived peptide addition reaction is defined as Y, and the radioactivity value of maximum binding reaction is defined as Z. The percentage ratio (B/B0) of antiserum specific binding level (B) with peptide addition to the maximum binding level (B0), was determined using the following formula.
B/B0 (%)={(Y−N)/(Z−N)}×100
Accordingly, the amount of peptide that achieves 50% B/B0, more specifically, the amount of peptide that yields 50% inhibition of the maximum binding level, was used as an indicator of the peptide binding activity to the antiserum.
The amounts of peptide/tube used for performing the measurements were 0.5, 1, 2, 4, 8, 16, 32, 64, 128, 256, 512 and 1024 fmol for Peptide 1; 1, 2, 4, 8, 16, 32, 64, 128, 256, 512 and 1024 fmol for Peptide 2; 1, 3.3, 10, 33, 100, 333, 1000, 3300, 10,000, 33,000, 100,000, 333,000 and 1,000,000 fmol for Peptide 3; and 1,000, 10,000, 100,000 and 1,000,000 fmol for Peptide 8.

[1] = non-VGF peptides at 1, 10, and 100 pmol

Row | Compound | inhibition of antiserum binding to [125I]-labeled Peptide 1 [1] | inhibition of antiserum binding to [125I]-labeled Peptide 1 (VGF-derived peptides, sequentially diluted)
1 | calcitonin | none of the peptides showed inhibition | –
2 | adrenomedulin | none of the peptides showed inhibition | –
3 | NC(=O)CC[C@@H]1NC(=O)[C@H](Cc2ccccc2)NC(=O)[C@H](Cc2ccc(O)cc2)NC(=O)[C@@H](N)CSSC[C@@H](C(=O)N2CCC[C@H]2C(=O)N[C@@H](CCCN=C(N)N)C(=O)NCC(N)=O)NC(=O)[C@H](CC(N)=O)NC1=O [vasopressin] | none of the peptides showed inhibition | –
4 | calcitonin receptor-stimulating peptide | none of the peptides showed inhibition | –
5 | Peptide 8: positions 606 to 615 of the human VGF amino acid sequence (YIEHVLLRRP; synthetic Peptide 8, positions 606-615 of human VGF, C-terminal VGF-derived peptide) | – | did not show any inhibition
6 | PAMP-20 | none of the peptides showed inhibition | –
7 | Leu-enkephalin | none of the peptides showed inhibition | –
8 | PHI-27 (HADGVFTSDFSKLLGQLSAKKYLESLM; ends and bridges not checked; UniProt P01282 81-107, looked up) [non-VGF peptide] | none of the peptides showed inhibition | –
9 | neuromedin U-8 | none of the peptides showed inhibition | –
10 | corticotropin-releasing factor | none of the peptides showed inhibition | –
11 | Met-enkephalin-Arg-Gly-Leu (YGGFMRGL) [non-VGF peptide] | none of the peptides showed inhibition | –
12 | substance K | none of the peptides showed inhibition | –
